In PubChem BioAssay (NCI):
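Abbreviation: GI50, concentration required for 50% inhibition of growth. At the TGI there is no net growth.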

What was measured:
Test in all cases: NCI anticancer screen, dose series, 384-well format; in the data active = GI50 below about 0.43 µM; inactive = the rest
[1] = tested on: COLO 205 colon
[2] = tested on: K-562 leukemia
[3] = tested on: HCT-15 colon
[4] = tested on: SR leukemia
[5] = tested on: HT29 colon
[6] = tested on: SK-MEL-28 melanoma
[7] = tested on: CCRF-CEM leukemia
[8] = tested on: PC-3 prostate
[9] = tested on: SF-295 CNS
[10] = tested on: MDA-MB-231 breast
[11] = tested on: OVCAR-8 ovarian
[12] = tested on: SN12C renal
[13] = tested on: SNB-19 CNS
[14] = tested on: NCI/ADR-RES ovarian
[15] = tested on: SF-268 CNS
[16] = tested on: UO-31 renal
[17] = tested on: UACC-62 melanoma
[18] = tested on: LOX IMVI melanoma
[19] = tested on: MCF7 breast
[20] = tested on: NCI-H322M lung
[21] = tested on: DU-145 prostate
[22] = tested on: BT-549 breast
[23] = tested on: NCI-H226 lung
[24] = tested on: TK-10 renal
[25] = tested on: ACHN renal
[26] = tested on: SNB-75 CNS
[27] = tested on: IGROV1 ovarian
[28] = tested on: EKVX NSCLC
[29] = tested on: UACC-257 melanoma
[30] = tested on: NCI-H460 NSCLC
[31] = tested on: SW-620 colon
[32] = tested on: NCI-H522 lung
[33] = tested on: MDA-MB-435 melanoma
[34] = tested on: SK-MEL-2 melanoma
[35] = tested on: RPMI-8226 leukemia
[36] = tested on: 786-0 renal
[37] = tested on: CAKI-1 renal
[38] = tested on: HOP-92 NSCLC
[39] = tested on: A549 NSCLC
[40] = tested on: HL-60(TB) leukemia
[41] = tested on: RXF 393 renal
[42] = tested on: OVCAR-3 ovarian
[43] = tested on: OVCAR-4 ovarian
[44] = tested on: KM12 colon
[45] = tested on: SK-MEL-5 melanoma
[46] = tested on: M14 melanoma
[47] = tested on: HCT-116 colon

CC(C)N(CCCNC(=O)Nc1ccc(C(C)(C)C)cc1)C[C@H]1O[C@@H](n2ccc3c(N)ncnc32)[C@H](O)[C@@H]1O
> 100 µM: TGI [1] | TGI [2] | TGI [3] | TGI [4] | TGI [5] | TGI [6] | TGI [7] | TGI [8] | TGI [9] | TGI [10] | TGI [11] | TGI [12] | TGI [13] | TGI [14] | TGI [15] | TGI [16] | TGI [17] | TGI [18] | TGI [19] | TGI [20] | TGI [21] | TGI [22] | TGI [23] | TGI [24] | TGI [25] | TGI [26] | TGI [27] | TGI [28] | TGI [30] | TGI [31] | TGI [32] | TGI [33] | TGI [34] | TGI [35] | TGI [36] | TGI [37] | TGI [38] | TGI [39] | TGI [40] | TGI [41] | TGI [42] | TGI [43] | TGI [44] | TGI [45] | TGI [46] | TGI [47]
inactive: GI50 [1] > 100 µM | GI50 [2] > 100 µM | GI50 [3] > 100 µM | GI50 [4] > 100 µM | GI50 [5] > 87.2 µM | GI50 [6] > 100 µM | GI50 [7] > 95.3 µM | GI50 [8] > 100 µM | GI50 [9] > 100 µM | GI50 [10] > 100 µM | GI50 [11] > 100 µM | GI50 [12] > 100 µM | GI50 [13] > 100 µM | GI50 [14] > 100 µM | GI50 [15] > 63.7 µM | GI50 [16] > 100 µM | GI50 [17] > 100 µM | GI50 [18] > 89 µM | GI50 [19] > 100 µM | GI50 [20] > 100 µM | GI50 [21] > 100 µM | GI50 [22] > 100 µM | GI50 [23] > 100 µM | GI50 [24] > 100 µM | GI50 [25] > 100 µM | GI50 [26] > 100 µM | GI50 [27] > 72.4 µM | GI50 [28] > 100 µM | GI50 [29] 41.5 µM | GI50 [30] > 100 µM | GI50 [31] > 100 µM | GI50 [32] > 100 µM | GI50 [33] > 100 µM | GI50 [34] > 100 µM | GI50 [35] 18.9 µM | GI50 [36] > 100 µM | GI50 [37] > 100 µM | GI50 [38] > 100 µM | GI50 [39] > 100 µM | GI50 [40] > 92.8 µM | GI50 [41] > 100 µM | GI50 [42] > 100 µM | GI50 [43] > 100 µM | GI50 [44] > 100 µM | GI50 [45] > 100 µM | GI50 [46] > 100 µM | GI50 [47] > 100 µM
> 95.1 µM: TGI [29]

[2H]c1nc(C)nc([2H])c1-c1cc(NC[C@@H](C)c2cccc3c(C(=O)NC)ccnc23)ncn1
50.3 µM: TGI [4]
inactive: GI50 [1] > 100 µM | GI50 [2] 48.1 µM | GI50 [3] > 100 µM | GI50 [4] 18.9 µM | GI50 [5] > 100 µM | GI50 [6] > 100 µM | GI50 [7] > 100 µM | GI50 [8] > 100 µM | GI50 [9] > 100 µM | GI50 [10] > 100 µM | GI50 [11] > 100 µM | GI50 [12] > 100 µM | GI50 [13] > 100 µM | GI50 [14] > 100 µM | GI50 [15] > 100 µM | GI50 [16] > 100 µM | GI50 [17] > 100 µM | GI50 [18] > 100 µM | GI50 [19] > 100 µM | GI50 [20] > 100 µM | GI50 [21] > 100 µM | GI50 [22] > 100 µM | GI50 [23] > 100 µM | GI50 [24] > 100 µM | GI50 [25] > 100 µM | GI50 [26] > 100 µM | GI50 [27] > 100 µM | GI50 [28] > 100 µM | GI50 [29] > 100 µM | GI50 [30] > 100 µM | GI50 [31] > 100 µM | GI50 [32] > 100 µM | GI50 [33] > 72.5 µM | GI50 [34] > 100 µM | GI50 [35] 70.2 µM | GI50 [36] > 100 µM | GI50 [37] > 100 µM | GI50 [38] > 100 µM | GI50 [39] > 100 µM | GI50 [40] 55.8 µM | GI50 [41] > 100 µM | GI50 [42] > 100 µM | GI50 [43] > 100 µM | GI50 [44] > 100 µM | GI50 [45] > 100 µM | GI50 [46] > 100 µM | GI50 [47] > 100 µM
> 100 µM: TGI [1] | TGI [2] | TGI [3] | TGI [5] | TGI [6] | TGI [7] | TGI [8] | TGI [9] | TGI [10] | TGI [11] | TGI [12] | TGI [13] | TGI [14] | TGI [15] | TGI [16] | TGI [17] | TGI [18] | TGI [19] | TGI [20] | TGI [21] | TGI [22] | TGI [23] | TGI [24] | TGI [25] | TGI [26] | TGI [27] | TGI [28] | TGI [29] | TGI [30] | TGI [31] | TGI [32] | TGI [33] | TGI [34] | TGI [35] | TGI [36] | TGI [37] | TGI [38] | TGI [39] | TGI [40] | TGI [41] | TGI [42] | TGI [43] | TGI [44] | TGI [45] | TGI [46] | TGI [47]
